Measured values from US9567280B2, “Preparation of hop acids and their derivatives” (MillerCoors LLC, priority 2010, dated 2017).
“Also recorded” adds a separate entry of the source.

How the values were obtained:
[1] = Bitterness perception in aqueous 5% v/v ethanol/H2O solution; conditions: 6 ppm in 5% ethanol/H2O
Source text: An aqueous 5% v/v ethanol/H2O solution was spiked with 6 ppm of THICO I, II, and III.

Pediococcus damnosus [2] = experiment: Minimum inhibitory concentration (MIC) in modified BMB without Tween 80 culture medium; type: cell-based; set-up: key to Growth of beer spoilage bacteria: + = Growth of beer spoilage bacteria; − = No growth of beer spoilage bacteria; +/− = Partial inhibition of bacterial growth; conditions: for Growth of beer spoilage bacteria: hop acids in 70% ethanol; for Minimum inhibitory concentration (MIC): concentration at which no bacteria were detected
Experimental: (§1) The antimicrobial effect of three molecules was tested on Pediococcus damnosus and Lactobacillus brevis with two methods (MIC and BZI). MIC was determined based on the concentration at which no bacteria were detected in the modified BMB without Tween 80 culture medium. […] The average diameters of the zones of bacterial inhibition in Universal Beer Agar (UBA) produced by the filter paper disks immersed in 4000 ppm of THICO I, II, and III in 70% ethanol/water are shown in Table 5. Zone diameters increased with the same rates for three molecules on two different organisms (Pediococcus damnosus and Lactobacillus brevis) indicate that all molecules have the same antibacterial effectiveness. No enantioselective antibacterial interactions between THICO I, II, III and the microbial occur.

[3] = Sensory evaluation of unhopped lagers spiked with THICO
Source text: Two sets of unhopped lagers (A and B) were spiked with 6 ppm and 13 ppm of THICO I, II, and III, respectively.
The other two beers were noted as being similar with initial intense bitterness that diminished slowly with slight lingering bitterness.

Lactobacillus brevis = experiment: Bacterial zone of inhibition (BZI), filter paper disks on Universal Beer Agar; type: cell-based; conditions: disks immersed in 4000 ppm in 70% ethanol/water
Experimental: as §1

Pediococcus damnosus [4] = experiment: as above; type: cell-based; conditions: disks immersed in 4000 ppm in 70% ethanol/water
Experimental: as §1

[5] = set A: unhopped lager spiked with 6 ppm

Row | Substance | Bitterness intensity (rank order) [1] | Growth of beer spoilage bacteria (Pediococcus damnosus [2]; 0.5 ppm) | Growth of beer spoilage bacteria (Pediococcus damnosus [2]; 1 ppm) | Growth of beer spoilage bacteria (Pediococcus damnosus [2]; 2 ppm) | Growth of beer spoilage bacteria (Pediococcus damnosus [2]; 4 ppm) | Growth of beer spoilage bacteria (Pediococcus damnosus [2]; 8 ppm) | Growth of beer spoilage bacteria (Pediococcus damnosus [2]; 16 ppm) | Growth of beer spoilage bacteria (Pediococcus damnosus [2]; 32 ppm) | Growth of beer spoilage bacteria (Pediococcus damnosus [2]; 64 ppm) | Growth of beer spoilage bacteria (Pediococcus damnosus [2]; 128 ppm) | Minimum inhibitory concentration (MIC) (Pediococcus damnosus [2]) [ppm] | Sensory evaluation of bitterness in beer [3, 5] | Diameter of Bacterial Zone of Inhibition (Lactobacillus brevis) [mm] | Diameter of Bacterial Zone of Inhibition (Pediococcus damnosus [4]) [mm] | Bitterness (bitter perception) [1] | Bitterness (bitter perception) ([1]; listed as (±)-THICO III) | Bitterness intensity (rank order) ([1]; listed as (±)-THICO III) | Sensory evaluation of bitterness in beer ([3]; set A: unhopped lager spiked with 6 ppm, listed as THCO II) | Sensory evaluation of bitterness in beer ([3]; set B: unhopped lager spiked with 13 ppm)
1 | (+)-cis- and (−)-trans-THICO [THICO I] | THICO II>(±)-THICO III>THICO I | + | + | + | + | + | +/− | − | − | − | 16 | a little more initial bitterness | 26 | 11.5 |  |  |  |  | 
2 | (±)-cis- and (±)-trans-tetrahydroisocohumulones [THICO III] | II>III>I |  |  |  |  |  |  |  |  |  |  | diminished quickly | 22.5 | 12 | smooth and milder than the others; also recorded: smooth, milder, clean | milder and smooth bitterness than THICO I; also recorded: smooth, clean and milder than I and II | THICO II>(±)-THICO III>THICO I |  | 
3 | (−)-cis- and (+)-trans-tetrahydro isocohumulone [THICO II] | THICO II>(±)-THICO III>THICO I | + | + | + | + | + | +/− | − | − | − | 16 | the most bitterness and longest lingering | 26.5 | 12 |  |  |  | the strongest initial bitterness and lingered the longest | strong initial bitterness that increased (described as late bitterness) and also lingered
